Experimental data as given in patent publication US20230286958A1, “PLASMA KALLIKREIN INHIBITORS” (Merck Sharp & Dohme LLC, priority 2020, published 2023).

Legend:
[1] = target: Human plasma kallikrein (Homo sapiens (Human), UniProt P03952); assay: Kallikrein Assay (fluorogenic substrate Acetyl-K-P-R-AFC); type: biochemical; settings: Plasma Kallikrein (PKal)
Procedure, shortened: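 Ki is derived from IC50 with the Cheng-Prusoff equation, and IC50 from the inflection point of a four-parameter logistic curve. The rate of AFC release is read with 0.5 nM purified enzyme and […] substrate at room temperature or 37 °C.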

[2] = target: human Factor XIa (Homo sapiens (Human), UniProt P03951); assay: Factor XIa Assay (fluorogenic substrate GPR-AFC); type: biochemical; settings: Factor XIa (FXIa)
human Factor XIa, sequence (P03951 388-625 limits assumed): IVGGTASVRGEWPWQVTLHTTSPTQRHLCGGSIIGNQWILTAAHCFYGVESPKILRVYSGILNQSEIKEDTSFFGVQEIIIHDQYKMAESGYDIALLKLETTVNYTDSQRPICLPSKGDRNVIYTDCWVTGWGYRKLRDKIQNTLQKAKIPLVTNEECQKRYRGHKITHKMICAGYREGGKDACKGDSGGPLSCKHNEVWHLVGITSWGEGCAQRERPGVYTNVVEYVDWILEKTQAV
human Factor XIa, sequence (P03951 19-387 partner limits assumed): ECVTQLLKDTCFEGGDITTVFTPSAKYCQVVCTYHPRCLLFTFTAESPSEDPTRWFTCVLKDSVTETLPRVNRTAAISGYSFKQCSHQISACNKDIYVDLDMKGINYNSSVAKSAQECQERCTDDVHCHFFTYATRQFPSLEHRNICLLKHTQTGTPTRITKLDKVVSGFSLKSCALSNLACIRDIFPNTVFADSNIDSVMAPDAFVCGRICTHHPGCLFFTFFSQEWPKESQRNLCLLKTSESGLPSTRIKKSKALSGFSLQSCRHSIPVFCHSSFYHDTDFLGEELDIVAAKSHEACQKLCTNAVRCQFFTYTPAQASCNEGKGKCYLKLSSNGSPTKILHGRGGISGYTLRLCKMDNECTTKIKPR

Human plasma kallikrein, sequence (P03952 391-638): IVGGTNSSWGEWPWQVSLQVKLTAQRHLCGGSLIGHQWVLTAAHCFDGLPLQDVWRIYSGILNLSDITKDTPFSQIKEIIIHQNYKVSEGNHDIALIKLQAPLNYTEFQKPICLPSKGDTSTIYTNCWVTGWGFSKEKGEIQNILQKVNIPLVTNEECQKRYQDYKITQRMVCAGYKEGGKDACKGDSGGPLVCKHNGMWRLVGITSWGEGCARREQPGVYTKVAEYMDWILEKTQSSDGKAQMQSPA
Human plasma kallikrein, sequence (P03952 20-390 partner): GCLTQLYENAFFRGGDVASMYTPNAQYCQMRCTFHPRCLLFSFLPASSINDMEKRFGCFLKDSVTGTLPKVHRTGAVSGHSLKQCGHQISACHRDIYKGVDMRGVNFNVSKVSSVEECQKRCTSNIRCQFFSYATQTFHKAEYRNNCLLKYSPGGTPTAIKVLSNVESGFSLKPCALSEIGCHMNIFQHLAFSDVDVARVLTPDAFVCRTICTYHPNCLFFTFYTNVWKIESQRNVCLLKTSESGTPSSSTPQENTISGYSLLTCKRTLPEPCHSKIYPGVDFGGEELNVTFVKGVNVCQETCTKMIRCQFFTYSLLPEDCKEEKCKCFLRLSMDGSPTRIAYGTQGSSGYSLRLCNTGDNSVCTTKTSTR

| IC50 [1] [nM] | IC50 [2] [nM] | SMILES |
| --- | --- | --- |
| 18.6 | 7680 | CC(c1cnc(N2CC3CC3C2=O)nc1)n1cc(NC(=O)c2cncc(-c3c(C(F)(F)F)ccc(Cl)c3F)n2)cn1 (single isomer, unassigned) [Example 70, 6-(3-Chloro-2-fluoro-6-(trifluoromethyl)phenyl)-N-(1-((S orR)-1-(2-((1R,5S or 1S,5R)-2-oxo-3-azabicyclo[3.1.0]hexan-3-yl)pyrimidin-5-yl)ethyl)-1H-pyrazol-4-yl)pyrazine-2-carboxamide] |
| 8.7 | 3450 | Cc1ncc(-c2c(C(F)F)ccc(Cl)c2F)nc1C(=O)Nc1cnn(C(CO)c2ccc(N3CC4CC4C3=O)nc2)c1 (single isomer, unassigned) [Example 162, 6-(3-chloro-6-(difluoromethyl)-2-fluorophenyl)-N-(1-((S or R)-2-hydroxy-1-(6-((1S,5R or 1R,5S)-2-oxo-3-azabicyclo[3.1.0]hexan-3-yl)pyridin-3-yl)ethyl)-1H-pyrazol-4-yl)-3-methylpyrazine-2-carboxamide] |
| 2.9 | 7300 | Cc1ncc(-c2c(C(F)F)ccc(Cl)c2F)nc1C(=O)Nc1cnn(C(C)c2ncc(N3C[C@H]4C[C@H]4C3=O)cc2Cl)c1 (single isomer, unassigned) [Example 147, N-(1-((R or S)-1-(3-Chloro-5-((1R,5S)-2-oxo-3-azabicyclo[3.1.0]hexan-3-yl)pyridin-2-yl)ethyl)-1H-pyrazol-4-yl)-6-(3-chloro-6-(difluoromethyl)-2-fluorophenyl)-3-methylpyrazine-2-carboxamide] |
| 0.5 | 2820 | Cc1nc(C(C)n2cc(NC(=O)c3cncc(-c4c(C(F)F)ccc(Cl)c4F)n3)cn2)cnc1N1C[C@H]2C[C@H]2C1=O (single isomer, unassigned) [Example 13, 6-(3-Chloro-6-(difluoromethyl)-2-fluorophenyl)-N-(1-((R or S)-1-(6-methyl-5-((1R,5S)-2-oxo-3-azabicyclo[3.1.0]hexan-3-yl)pyrazin-2-yl)ethyl)-1H-pyrazol-4-yl)pyrazine-2-carboxamide] |
| 1.2 | 449 | COCc1ncc(-c2c(C(F)F)ccc(Cl)c2F)nc1C(=O)Nc1cnn(C(C)c2cnc(N3C[C@H]4C[C@H]4C3=O)c(C)n2)c1 (single isomer, unassigned) [Example 125, 6-(3-Chloro-6-(difluoromethyl)-2-fluorophenyl)-3-(methoxymethyl)-N-(1-((S or R)-1-(6-methyl-5-((1R,5S)-2-oxo-3-azabicyclo[3.1.0]hexan-3-yl)pyrazin-2-yl)ethyl)-1H-pyrazol-4-yl)pyrazine-2-carboxamide] |
| 0.8 | > 10000 | Cc1ncc(-c2c(C(F)F)ccc(Cl)c2F)nc1C(=O)Nc1cnn(C(C)c2ncc(N3C[C@H]4C[C@H]4C3=O)c(C)c2C)c1 (single isomer, unassigned) [Example 242, 6-(3-Chloro-6-(difluoromethyl)-2-fluorophenyl)-N-(1-((R or S)-1-(3,4-dimethyl-5-((1R,5S)-2-oxo-3-azabicyclo[3.1.0]hexan-3-yl)pyridin-2-yl)ethyl)-1H-pyrazol-4-yl)-3-methylpyrazine-2-carboxamide] |
| 6.2 | 742 | Cc1cc([C@@H](C)n2cc(NC(=O)c3cncc(-c4c(C(F)F)ccc(Cl)c4F)n3)cn2)nnc1N1C[C@H]2C[C@H]2C1=O [Example 38, 6-(3-Chloro-6-(difluoromethyl)-2-fluorophenyl)-N-(1-((R)-1-(5-methyl-6-((1R,5S)-2-oxo-3-azabicyclo[3.1.0]hexan-3-yl)pyridazin-3-yl)ethyl)-1H-pyrazol-4-yl)pyrazine-2-carboxamide] |
| 0.4 | 328 | Cc1cc([C@H](C)n2cc(NC(=O)c3nc(-c4c(OC(F)F)ccc(Cl)c4F)cnc3C)cn2)nnc1N1C[C@H]2C[C@H]2C1=O [Example 39, 6-(3-Chloro-6-(difluoromethoxy)-2-fluorophenyl)-3-methyl-N-(1-((S)-1-(5-methyl-6-((1R,5S)-2-oxo-3-azabigyclo[3.1.0]hexan-3-yl)pyridazin-3-yl)ethyl)-1H-pyrazol-4-yl)pyrazine-2-carboxamide] |

The remaining lines, values behind:

| SMILES | IC50 [1] [nM] | IC50 [2] [nM] |
| --- | --- | --- |
| CC(c1cnc(N2CC3CC3C2=O)nc1)n1cc(NC(=O)c2cncc(-c3c(OC(F)F)ccc(Cl)c3F)n2)cn1 (single isomer, unassigned) [Example 72, 6-(3-Chloro-6-(difluoromethoxy)-2-fluorophenyl)-N-(1-((R or S)-1-(2-((1R,5S or 1S,5R)-2-oxo-3-azabicyclo[3.1.0]hexan-3-yl)pyrimidin-5-yl)ethyl)-1H-pyrazol-4-yl)pyrazine-2-carboxamide] | 3.7 | 2740 |
| Cc1cc(C(C)n2cc(NC(=O)c3cc(-c4c(C(F)F)ccc(Cl)c4F)c[n+]([O-])c3)cn2)cnc1N1C[C@H]2C[C@H]2C1=O (single isomer, unassigned) [Example 106, 5-(3-Chloro-6-(difluoromethyl)-2-fluorophenyl)-N-(1-((S or R)-1-(5-methyl-6-((1R,5S)-2-oxo-3-azabicyclo[3.1.0]hexan-3-yl)pyridin-3-yl)ethyl)-1H-pyrazol-4-yl)-1-(l1-oxidanyl)-114-pyridine-3-carboxamide] | 1.4 | 103 |
| Cc1nc(N2C[C@@H]3C[C@@H]3C2=O)ncc1Cn1cc(NC(=O)c2nc(-c3c(C(F)F)ccc(Cl)c3F)cnc2C)cn1 [Example 34, 6-(3-Chloro-6-(difluoromethyl)-2-fluorophenyl)-3-methyl-N-(1-((4-methyl-2-((1S,5R)-2-oxo-3-azabicyclo[3.1.0]hexan-3-yl)pyrimidin-5-yl)methyl)-1H-pyrazol-4-yl)pyrazine-2-carboxamide] | 19.3 | 2890 |
| CCc1ncc(-c2c(C(F)F)ccc(Cl)c2F)nc1C(=O)Nc1cnn(C(C)c2cc(C)c(N3C[C@H]4C[C@H]4C3=O)nn2)c1 (single isomer, unassigned) [Example 238, 6-(3-Chloro-6-(difluoromethyl)-2-fluorophenyl)-3-ethyl-N-(1-((R or S)-1-(5-methyl-6-((1R,5S)-2-oxo-3-azabicyclo[3.1.0]hexan-3-yl)pyridazin-3-yl)ethyl)-1H-pyrazol-4-yl)pyrazine-2-carboxamide] | 6.3 | 734 |
| Cc1c(Cn2cc(NC(=O)c3cncc(-c4c(C(F)F)ccc(Cl)c4F)n3)cn2)ccc(N2C[C@H]3C[C@H]3C2=O)c1C [Example 48] | 0.6 | > 10000 |
| Cc1nc(C(C)n2cc(NC(=O)c3nc(-c4c(C(F)F)ccc(Cl)c4F)cnc3CO)cn2)cnc1N1C[C@H]2C[C@H]2C1=O (single isomer, unassigned) [Example 197, 6-(3-Chloro-6-(difluoromethyl)-2-fluorophenyl)-3-(hydroxymethyl)-N-(1-((S or R)-1-(6-methyl-5-((1R,5S)-2-oxo-3-azabicyclo[3.1.0]hexan-3-yl)pyrazin-2-yl)ethyl)-1H-pyrazol-4-yl)pyrazine-2-carboxamide] | 0.2 | 48 |
| Cc1nc(N2C[C@H]3C[C@H]3C2=O)ncc1Cn1ncc(NC(=O)c2nc(-c3c(C(F)F)ccc(Cl)c3F)cnc2C)n1 [Example 184, 6-(3-Chloro-6-(difluoromethyl)-2-fluorophenyl)-3-methyl-N-(2-((4-methyl-2-((1R,5S)-2-oxo-3-azabicyclo[3.1.0]hexan-3-yl)pyrimidin-5-yl)methyl)-2H-1,2,3-triazol-4-yl)pyrazine-2-carboxamide] | 8.1 | 7730 |
| Cc1nc(N2C[C@H]3C[C@H]3C2=O)ncc1C(C)n1cc(NC(=O)c2nc(-c3c(C(F)F)ccc(Cl)c3F)cc(=O)n2C)cn1 (single isomer, unassigned) [Example 80, 4-(3-Chloro-6-(difluoromethyl)-2-fluorophenyl)-1-methyl-N-(1-((R or S)-1-(4-methyl-2-((1R,5S)-2-oxo-3-azabicyclo[3.1.0]hexan-3-yl)pyrimidin-5-yl)ethyl)-1H-pyrazol-4-yl)-6-oxo-1,6-dihydropyrimidine-2-carboxamide] | 25.3 | 284 |
| O=C(Nc1cnn(Cc2ccc(N3C[C@H]4C[C@H]4C3=O)cc2)c1)c1cncc(-c2c(C(F)F)ccc(Cl)c2F)n1 [Example 145, 6-(3-Chloro-6-(difluoromethyl)-2-fluorophenyl)-N-(1-(4-((1R,5S)-2-oxo-3-azabicyclo[3.1.0]hexan-3-yl)benzyl)-1H-pyrazol-4-yl)pyrazine-2-carboxamide] | 2.4 | > 10000 |
| Cc1c(C(C)n2cc(NC(=O)c3cncc(-c4c(C(F)F)ccc(Cl)c4F)n3)cn2)cnc(N2C[C@H]3C[C@H]3C2=O)c1C (single isomer, unassigned) [Example 153, 6-(3-Chloro-6-(difluoromethyl)-2-fluorophenyl)-N-(1-((S or R)-1-(4,5-dimethyl-6-((1R,5S)-2-oxo-3-azabicyclo[3.1.0]hexan-3-yl)pyridin-3-yl)ethyl)-1H-pyrazol-4-yl)pyrazine-2-carboxamide] | 2 | 2170 |
| Cc1cc(C(C)n2cc(NC(=O)c3nc(-c4c(OC(F)F)ccc(Cl)c4F)cnc3COC(C)(C)C)cn2)cnc1N1C[C@H]2C[C@H]2C1=O (mixture of isomers) [Example 228, 3-(tert-Butoxymethyl)-6-(3-chloro-6-(difluoromethoxy)-2-fluorophenyl)-N-(1-((R and S)-1-(5-methyl-6-((1R,5S)-2-oxo-3-azabicyclo[3.1.0]hexan-3-yl)pyridin-3-yl)ethyl)-1H-pyrazol-4-yl)pyrazine-2-carboxamide] | 1.6 | 602 |
| Cc1nc(C(C)n2cc(NC(=O)c3cncc(-c4c(C(F)F)ccc(Cl)c4F)n3)cn2)ccc1N1C[C@H]2C[C@H]2C1=O (single isomer, unassigned) [Example 61, 6-(3-Chloro-6-(difluoromethyl)-2-fluorophenyl)-N-(1-((R or S)-1-(6-methyl-5-((1R,5S)-2-oxo-3-azabicyclo[3.1.0]hexan-3-yl)pyridin-2-yl)ethyl)-1H-pyrazol-4-yl)pyrazine-2-carboxamide] | 0.7 | > 10000 |
